In DBAASP one finds MIC data, which are given here for 6 molecules.

Some test systems named below: Streptococcus pneumoniae; Saccharomyces cerevisiae; Clostridium perfringens; Klebsiella pneumoniae; Salmonella typhimurium; Escherichia coli B; Candida albicans; Neisseria meningitidis; Vibrio cholerae; Listeria monocytogenes; Pseudomonas aeruginosa; Streptococcus mutans; Escherichia coli O111; Escherichia coli Ec513.
What all share (test): ≥ marks a high value that may be exact or a test limit, other limits are often not marked, values filed in µg/mL are converted to µM
The subject of assay [1] is Staphylococcus aureus ATCC 25923.
For assay [2], the system named is Escherichia coli 363 ATCC 11775.
For assay [3], the system named is Enterobacter cloacae ATCC 11775.
For assay [4], the system named is Salmonella enterica subsp. enterica serovar Enteritidis.
The test system of assay [5] is Staphylococcus haemolyticus.
The subject of assay [6] is Salmonella typhimurium CIP 6062.
In assay [7] the test system is Bacillus megaterium ATCC 9885.
The subject of assay [8] is Streptococcus gordonii Challis DL1.
In assay [9] the test system is Streptococcus sanguinis NY101.
Assay [10] relates to Veillonella atypica PK1910.
Assay [11] relates to Lacticaseibacillus casei ATCC 4646.
The subject of assay [12] is Streptococcus mitis ATCC 903.
Assay [13] concerns Escherichia coli ATCC 25726.
The subject of assay [14] is Acinetobacter baumannii NM8.
Assay [15] has as its system Pseudomonas aeruginosa Pa4216.
The test system of assay [16] is Acinetobacter baumannii NM124.
Assay [17] relates to Acinetobacter baumannii NM35.
The subject of assay [18] is Acinetobacter baumannii Ab1408.
Assay [19] concerns Pseudomonas aeruginosa Pa1409.
The test system of assay [20] is Acinetobacter baumannii Ab5753.
Assay [21] deals with Klebsiella pneumoniae ATCC 700603.
Assay [22] relates to Candida albicans ATCC 90028.
In assay [23] the test system is Staphylococcus aureus Sa1390.
Assay [24] has as its system Pseudomonas aeruginosa ATCC 27853.
The test system of assay [25] is Acinetobacter baumannii Ab5755.

In brackets after ≈: the same amount, converted by molar mass.

Consider `CC(C)C[C@H](NC(=O)[C@H](CC(C)C)NC(=O)[C@H](CCCCN)NC(=O)CNC(=O)[C@H](C)NC(=O)[C@@H](NC(=O)[C@H](CCCCN)NC(=O)[C@H](CC(C)C)NC(=O)[C@H](CC(C)C)NC(=O)[C@H](CC(=O)O)NC(=O)[C@@H](NC(=O)[C@@H](NC(=O)[C@@H](NC(=O)CN)C(C)C)C(C)C)[C@@H](C)O)[C@@H](C)O)C(=O)NCC(=O)N[C@@H](CC(N)=O)C(=O)N[C@@H](CC(C)C)C(=O)N[C@@H](Cc1ccccc1)C(=O)NCC(=O)N[C@@H](CO)C(=O)N[C@@H](CC(C)C)C(=O)N[C@@H](CO)C(=O)NCC(N)=O` [GVVTDLLKTAGKLLGNLFGSLSG], for which the MIC with Streptococcus pneumoniae was 12.5 µM (≈ 28.2 µg/mL); in the assay on Saccharomyces cerevisiae, not below 100 µM; in the assay on Clostridium perfringens, not below 100 µM; in assay [1] it was 6.25 µM (≈ 14.1 µg/mL); in [2] it was 6.25 µM (≈ 14.1 µg/mL); in the assay on Klebsiella pneumoniae, 6.25 µM (≈ 14.1 µg/mL). In addition, the MIC is 6.25 µM (≈ 14.1 µg/mL) with Salmonella typhimurium; 12.5 µM (≈ 28.2 µg/mL) in the assay on Escherichia coli B; 50 µM (≈ 113 µg/mL) in the assay on Candida albicans; 12.5 µM (≈ 28.2 µg/mL) in [3]; not below 50 µM in the assay with Neisseria meningitidis; 3.1 µM (≈ 7.01 µg/mL) in assay [4]. Moreover, the MIC is 25 µM (≈ 56.5 µg/mL) with Vibrio cholerae; not below 50 µM in assay [5]; 25.2 µM (≈ 57.1 µg/mL) in [6]; not below 50 µM with Listeria monocytogenes; not below 50.2 µM in [7]; 3.1 µM (≈ 7.01 µg/mL) in the assay with Pseudomonas aeruginosa.
On to `CC(C)C[C@H](NC(=O)[C@H](Cc1ccccc1)NC(=O)[C@H](CCCN=C(N)N)NC(=O)[C@H](CCCCN)NC(=O)[C@@H](N)CC(C)C)C(=O)N[C@@H](CCCCN)C(=O)N[C@@H](Cc1c[nH]c2ccccc12)C(=O)N[C@@H](Cc1ccccc1)C(=O)N[C@@H](CCCCN)C(=O)N[C@@H](CCCN=C(N)N)C(=O)N[C@@H](Cc1ccccc1)C(=O)NCC(=O)NCC(=O)NCC(=O)N[C@@H](CCCN=C(N)N)C(=O)N[C@@H](Cc1c[nH]c2ccccc12)C(=O)N[C@@H](CCCN=C(N)N)C(=O)N[C@@H](Cc1c[nH]c2ccccc12)C(=O)N[C@@H](CCCN=C(N)N)C(=O)N[C@@H](Cc1c[nH]c2ccccc12)C(=O)N[C@@H](Cc1ccccc1)C(N)=O` [LKRFLKWFKRFGGGRWRWRWF], for which the MIC was found to be 22 µM (≈ 64 µg/mL) in assay [8]; 2.74 µM (≈ 8 µg/mL) in the assay on Streptococcus mutans; 5.49 µM (≈ 16 µg/mL) in assay [9]; 2.74 µM (≈ 8 µg/mL) in [10]; 5.49 µM (≈ 16 µg/mL) in assay [11]; 22 µM (≈ 64 µg/mL) in assay [12].
In turn, `CC[C@H](C)[C@H](NC(=O)[C@H](CO)NC(=O)[C@@H]1CCCN1C(=O)[C@H](C)NC(=O)CNC(=O)[C@H](CC(C)C)NC(=O)[C@H](CCCCN)NC(=O)[C@H](CCCN=C(N)N)NC(=O)[C@H](CCSC)NC(=O)[C@H](CCCN=C(N)N)NC(=O)[C@H](CCCN=C(N)N)NC(=O)[C@H](CCC(N)=O)NC(=O)[C@H](Cc1c[nH]c2ccccc12)NC(=O)[C@H](CCC(N)=O)NC(=O)[C@@H](N)Cc1ccc(O)cc1)C(=O)N[C@H](C(=O)O)[C@@H](C)O` [YQWQRRMRKLGAPSIT] yielded an MIC in the assay with Escherichia coli O111 not below 100 µM.
`NCCCC[C@H](NC(=O)[C@H](Cc1c[nH]c2ccccc12)NC(=O)[C@H](Cc1ccccc1)NC(=O)[C@H](CCCCN)NC(=O)[C@H](CCCCN)NC(=O)[C@@H](N)Cc1ccccc1)C(=O)N[C@@H](Cc1c[nH]c2ccccc12)C(=O)N[C@@H](Cc1ccccc1)C(=O)N[C@@H](CCCN=C(N)N)C(=O)N[C@@H](CCCN=C(N)N)C(=O)N[C@@H](Cc1ccccc1)C(=O)NCC(=O)NCC(=O)NCC(=O)N[C@@H](CCCN=C(N)N)C(=O)N[C@@H](Cc1c[nH]c2ccccc12)C(=O)N[C@@H](CCCN=C(N)N)C(=O)N[C@@H](Cc1c[nH]c2ccccc12)C(=O)N[C@@H](CCCN=C(N)N)C(=O)N[C@@H](Cc1c[nH]c2ccccc12)C(=O)N[C@@H](Cc1ccccc1)C(N)=O` [FKKFWKWFRRFGGGRWRWRWF]: the MIC is 10.6 µM (≈ 32 µg/mL) in assay [8]; 2.65 µM (≈ 8 µg/mL) in the assay with Streptococcus mutans; 5.3 µM (≈ 16 µg/mL) in assay [9]; 2.65 µM (≈ 8 µg/mL) in assay [10]; 2.65 µM (≈ 8 µg/mL) in assay [11]; 21.2 µM (≈ 64 µg/mL) in assay [12].
On to `CC[C@H](C)[C@H](NC(=O)CNC(=O)[C@H](CCCCN)NC(=O)[C@@H](NC(=O)[C@H](CC(C)C)NC(=O)[C@H](CO)NC(=O)CNC(=O)[C@H](CC(C)C)NC(=O)CNC(=O)[C@H](C)NC(=O)[C@H](CCCCN)NC(=O)[C@H](Cc1ccccc1)NC(=O)[C@@H](NC(=O)[C@H](CCCCN)NC(=O)[C@H](CCCCN)NC(=O)[C@H](CC(C)C)NC(=O)CN)[C@@H](C)CC)C(C)C)C(=O)N[C@@H](C)C(=O)N[C@@H](C)C(=O)N[C@@H](Cc1cnc[nH]1)C(=O)N[C@H](C(=O)N[C@@H](C)C(=O)N[C@@H](CO)C(N)=O)C(C)C` [GLKKIFKAGLGSLVKGIAAHVAS], for which the minimal inhibitory concentration (MIC) in [13] came out at 5 µM (≈ 11.3 µg/mL); in assay [1], 250 µM (≈ 566 µg/mL); in [14], 2.5 µM (≈ 5.66 µg/mL); in [15], 28.2 µM (≈ 64 µg/mL); in [16], 1.25 µM (≈ 2.83 µg/mL); in assay [17] it was 5 µM (≈ 11.3 µg/mL). The minimal inhibitory concentration (MIC) was 28.2 µM (≈ 64 µg/mL) in assay [18]; 14.1 µM (≈ 32 µg/mL) in the assay on Escherichia coli Ec513; not below 56.5 µM in [19]; 28.2 µM (≈ 64 µg/mL) in [20]; 12.5 µM (≈ 28.3 µg/mL) in assay [21]; 20 µM (≈ 45.3 µg/mL) in [22]. Also, the MIC in [23] is not below 56.5 µM; in [24], 6 µM (≈ 13.6 µg/mL); in assay [25], 3.53 µM (≈ 8 µg/mL).
On to `CC[C@H](C)[C@H](NC(=O)[C@H](CC(C)C)NC(=O)[C@H](CO)NC(=O)[C@@H](NC(=O)[C@@H](NC(=O)[C@H](CC(C)C)NC(=O)CN)C(C)C)[C@@H](C)O)C(=O)N[C@@H](CCCCN)C(=O)NCC(=O)N[C@@H](C)C(=O)NCC(=O)N[C@@H](CCCCN)C(=O)N[C@@H](CC(C)C)C(=O)N[C@@H](CC(C)C)C(=O)NCC(=O)NCC(=O)N[C@@H](CC(C)C)C(=O)N[C@@H](Cc1ccccc1)C(=O)NCC(=O)N[C@@H](CO)C(=O)N[C@H](C(=O)N[C@H](C(=O)NCC(N)=O)[C@@H](C)O)C(C)C` [GLVTSLIKGAGKLLGGLFGSVTG], for which the minimum inhibitory concentration (MIC) stood at 3.1 µM (≈ 6.65 µg/mL) against Streptococcus pneumoniae; 12.5 µM (≈ 26.8 µg/mL) in the assay with Saccharomyces cerevisiae; 25 µM (≈ 53.6 µg/mL) with Clostridium perfringens; 6.25 µM (≈ 13.4 µg/mL) in assay [1]; 6.25 µM (≈ 13.4 µg/mL) in assay [2]; 3.1 µM (≈ 6.65 µg/mL) against Klebsiella pneumoniae. Also, the minimum inhibitory concentration (MIC) was found to be 12.5 µM (≈ 26.8 µg/mL) in the assay with Candida albicans; 12.6 µM (≈ 26.9 µg/mL) in [3]; 25 µM (≈ 53.6 µg/mL) with Neisseria meningitidis; 1.5 µM (≈ 3.22 µg/mL) in assay [4]; 6.25 µM (≈ 13.4 µg/mL) against Vibrio cholerae; 6.25 µM (≈ 13.4 µg/mL) in assay [5]. Also, the MIC was found to be 12.6 µM (≈ 26.9 µg/mL) in [6], 12.5 µM (≈ 26.8 µg/mL) in the assay with Listeria monocytogenes, 3.15 µM (≈ 6.76 µg/mL) in [7] and 1.5 µM (≈ 3.22 µg/mL) in the assay on Pseudomonas aeruginosa.
